The results in this text go back to PubChem BioAssay (NCI).

Where “and” joins values, the source holds several entries; their conditions need not be identical. Equal entries are not always repeated.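 1) Cells in 96-well plates. 2) Compound, 48 h, 5 concentrations. 3) Linear interpolation between surrounding doses. 4) Unreached endpoint = highest concentration. GI50 is the concentration that inhibits growth by half. TGI: total growth inhibition.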

Holding throughout (assay): inhibition of tumour cell growth, NCI panel, 48 h
The test system of assay [1] is UACC-257 melanoma.
Assay [2] relates to EKVX NSCLC.
Assay [3] has as its system HOP-62 NSCLC.
In assay [4] the test system is PC-3 prostate.
The subject of assay [5] is M14 melanoma.
The subject of assay [6] is A549 NSCLC.
Assay [7] deals with MDA-MB-231 breast.
For assay [8], the system named is MDA-N.
Assay [9] concerns HCT-15 colon.
Assay [10] relates to KM12 colon.

In the case of `COC(=O)c1cc(=O)[nH]c(=O)[nH]1`, the TGI in [1], in assay [2], in [3], in assay [4], in assay [5] and in [6] was greater than 100 µM in each case. In addition, the TGI in assay [7], in [8] and in [9] was greater than 100 µM each time.
For `CCCCC(=O)c1c(O)nc2sccn2c1=O`, the TGI in assay [2], in assay [3], in [4], in [10], in [5] and in [6] was greater than 10 µM each time. The TGI in assay [7], in [8] and in assay [9] was greater than 10 µM throughout.
As to `O=C(N/N=C/C=C/c1ccc([N+](=O)[O-])o1)c1cc2ccccc2cc1O`, the GI50 in [1] was 1.38 µM; in assay [2] it was 2.64 µM; in [3], 3.27 µM; in [4], 2.02 µM; in [10] it was 1.42 µM; in assay [5], 0.758 µM. Moreover, the figures for the GI50 in assay [6], in assay [7] and in [9] were 2.75 µM, 2.17 µM and 0.465 µM, respectively. For the same compound, the TGI in assay [1] is 4.21 µM; in [2], 9.48 µM; in assay [3], 10.6 µM; in [4], 9.97 µM; in [10], 2.85 µM; in [5], 2.15 µM. Also, the figures for the TGI in assay [6], in [7] and in assay [9] were 12.2 µM, 8.65 µM and 4.23 µM, respectively.
As for `N#CC1(C#N)NC(c2cccs2)C(C#N)(C#N)NC1c1cccs1` (configuration not stated), the TGI in assay [1], in assay [2], in [3], in assay [4], in [10] and in assay [5] was greater than 100 µM in each case. Also, the TGI in assay [6], in assay [7] and in [9] was greater than 100 µM in each case.
For `[Cl][Sn]([c]1ccccc1)([c]1ccccc1)[c]1ccccc1`, the TGI in assay [2] is 0.985 µM and 0.239 µM and 0.119 µM; in assay [3], 0.467 µM and 0.188 µM and 0.287 µM; in assay [4], 1.02 µM; in assay [6] it was 0.41 µM and 0.176 µM and 0.0469 µM; in assay [7], 0.54 µM. The GI50 in assay [3] is 0.21 µM and 0.0575 µM and 0.132 µM; in [4], 0.327 µM; in assay [7], 0.216 µM.
On to `COc1ccc(C2=Nc3cc(C)c(C)cc3NC(c3ccccc3)C2)cc1` (configuration not stated), for which the TGI in assay [1], in assay [2], in assay [3], in assay [4], in assay [10] and in assay [5] was greater than 100 µM each time. Also, the TGI in [6], in [7] and in assay [9] was greater than 100 µM in each case.
As for `COc1c(O)c(C=O)c2c(O)c(-c3c(C)cc4c(C(C)C)c(OC)c(O)c(C=O)c4c3O)c(C)cc2c1C(C)C`, the TGI was 29 µM in assay [1]; 17.7 µM in [2]; 9.18 µM in [3]; 16 µM in assay [10]; 22.2 µM in [5]; 11.6 µM in assay [6]. Also, in assay [9], the TGI was determined as 14 µM.
With `C[n+]1cccc2c(=O)c3ccccc3oc21`, the TGI in assay [2], in [3], in [4], in assay [10], in assay [5] and in assay [6] was greater than 100 µM throughout. For the same compound, the TGI in assay [7], in assay [8] and in assay [9] was greater than 100 µM each time.
Regarding `Cc1cc(C)nc(SC2=C(Nc3ccc(C)c(Cl)c3)C(=O)N(Cc3ccccc3)C2=O)n1`, the GI50 was 1.35 µM in assay [3], greater than 160 µM in [10], greater than 160 µM in [5] and greater than 160 µM in assay [6]. Besides, the TGI in [3], in assay [10], in assay [5] and in assay [6] was greater than 160 µM throughout.
Take `C/C=C/c1cc(=O)c([C@@H]2OC(=O)c3cc(OC)cc(OC)c32)co1`: the TGI in assay [1], in assay [2], in assay [3], in assay [10], in assay [5] and in assay [6] was greater than 100 µM each time.
Take `Cc1ccc2c(=O)cc(-c3ccc(Cl)s3)[nH]c2n1`: the TGI in assay [1], in [2], in assay [3], in assay [4], in assay [10] and in assay [5] was greater than 100 µM each time. The TGI is greater than 29.3 µM in [6], greater than 100 µM in assay [7] and greater than 100 µM in assay [9].
In the case of `CC(=O)OCC1OC(SC2=N/C(=C\c3ccc(Br)s3)C(=O)N2CN2CCOCC2)C(OC(C)=O)C(OC(C)=O)C1OC(C)=O` (configuration not stated), the TGI in assay [1] was 32.2 µM; in assay [2], 97.4 µM; in assay [3], 56.6 µM; in assay [4] it was 54.5 µM; in assay [10], 35.3 µM; in [7], greater than 100 µM. The figures for the TGI in assay [8] and in [9] were 47.7 µM and 49.1 µM, respectively.
Take `C=C/C(C)=C\CC1[C@](C)(O)CC[C@H]2C(C)(C)C(=O)CC[C@]12C` (some centres not stated): the TGI in assay [1], in assay [2], in assay [4], in [10], in assay [5] and in assay [6] was greater than 100 µM in each case. Besides, the TGI in assay [7], in assay [8] and in assay [9] was greater than 100 µM throughout.
As for `COc1cc2ccc(=O)oc2cc1O`, the TGI in assay [1] is 270 µM; in assay [2], 226 µM; in [3] it was 411 µM; in [10], greater than 625 µM; in assay [6] it was 320 µM; in assay [9] it was greater than 625 µM.
As for `CC(=C(c1ccccc1)c1ccccc1)N1C(=O)CC(=O)N1C`, the TGI in assay [1], in [2], in assay [3], in assay [4], in [10] and in assay [5] was greater than 100 µM each time. Also, the TGI in assay [6] and in [8] was greater than 100 µM each time.
